Reference: US8119645B2, “Fungicide hydroximoyl-tetrazole derivatives” (Bayer Cropscience AG, priority 2006, dated 2012)

Test: logP by reversed-phase HPLC (EEC Directive 79/831 Annex V.A8)
Format: physicochemical
Conditions: for LogP: HPLC C18, 40° C., 0.1% aqueous formic acid / acetonitrile gradient
Procedure: Temperature: 40° C.; Mobile phases: 0.1% aqueous formic acid and acetonitrile; linear gradient from 10% acetonitrile to 90% acetonitrile.

SMILES	LogP	chromatographic logP
CCCCCC(=O)Nc1nc(CON=C(c2csc(-c3ccccc3)n2)c2nnnn2C)cs1 [Compound 171]	3.94	–
Cc1ccc(C(=NOCc2csc(NC(=O)CCCc3ccccc3)n2)n2nnnc2C)o1 [Compound 60]	3.4	–
COCCOCC(=O)Nc1nc(CON=C(c2ccsc2)n2nnnc2C)cs1 [Compound 48]	2.28	–
CCCC(=O)Nc1nc(CON=C(c2ccc(-c3ccccc3)s2)n2nnnc2C)cs1 [Compound 56]	3.87	–
Cn1nnnc1C(=NOCc1cccc(NC(=O)Cc2ccccc2)n1)c1csc(-c2ccccc2)n1 [Compound 175]	3.72	–
Cc1nnnn1C(=NOCc1csc(NC(=O)Cc2ccccc2)n1)c1ccc(Br)s1 [Compound 93]	3.53	–
CCCCCC(=O)Nc1nc(CON=C(c2ccc(C)s2)n2nnnc2C)cs1 [Compound 120]	3.76	–
COCCOCC(=O)Nc1cccc(CON=C(c2ccsc2Cl)n2nnnc2C)n1 [Compound 15]	2.61	–
Cc1nnnn1C(=NOCc1csc(N)n1)c1cc(-c2ccccc2)c(Cl)s1 [Compound 76]	2.86	–
Cc1ccc(C(=NOCc2csc(NC(=O)CCc3ccccc3)n2)n2nnnc2C)o1 [Compound 61]	3.15	–
Cc1nnnn1C(=NOCc1csc(NC(=O)NCCc2ccccc2)n1)c1ccc(Cl)s1 [Compound 104]	3.64	–
CCCCCC(=O)Nc1nc(CON=C(c2ccc(C)o2)n2nnnc2C)cs1 [Compound 64]	3.26	–
Cc1nnnn1C(=NOCc1csc(NC(=O)OCCc2ccccc2)n1)c1ccsc1 [Compound 44]	3.46	–
CCCCCOC(=O)Nc1cccc(CON=C(c2ccsc2Cl)n2nnnc2C)n1 [Compound 16]	4.19	–
CCCCCCCCC(=O)Nc1nc(CON=C(c2cc(-c3ccccc3)c(Cl)s2)n2nnnc2C)cs1 [Compound 78]	5.94	–
Cc1nnnn1C(=NOCc1csc(NC(=O)OCc2ccccc2)n1)c1ccsc1 [Compound 46]	3.24	–
Cc1nnnn1C(=NOCc1csc(NC(=O)CCCCl)n1)c1ccsc1Cl [Compound 5]	3	–
COCCOC(=O)Nc1nc(CON=C(c2ccc(C)s2)n2nnnc2C)cs1 [Compound 130]	2.76	–
COCCOCC(=O)Nc1nc(CON=C(c2ccc(Cl)s2)n2nnnc2C)cs1 [Compound 111]	2.88	–
Cc1nnnn1C(=NOCc1csc(NC(=O)CCc2ccccc2)n1)c1ccc(Br)s1 [Compound 89]	3.76	–
Cc1nnnn1C(=NOCc1csc(NC(=O)c2ccccc2)n1)c1ccsc1 [Compound 35]	2.93	–
Cc1nnnn1C(=NOCc1csc(NC(=O)C(C)C)n1)c1ccsc1 [Compound 31]	2.55	–
CCCCCC(=O)Nc1nc(CON=C(c2ccsc2)n2nnnc2C)cs1 [Compound 30]	3.25	–
Cc1ccc(C(=NOCc2csc(NC(=O)NCc3ccccc3)n2)n2nnnc2C)s1 [Compound 117]	3.17	–
Cc1ccc(C(=NOCc2cccc(NC(=O)OCCc3ccccc3)n2)n2nnnc2C)s1 [Compound 125]	4.02	–
Cc1nnnn1C(=NOCc1csc(NC(=O)NC2CCCC2)n1)c1ccsc1 [Compound 28]	2.65	–
CCCCCCCCNC(=O)Nc1nc(CON=C(c2ccsc2)n2nnnc2C)cs1 [Compound 23]	3.26	–

SMILES	LogP	chromatographic logP
Cn1nnnc1C(=NOCc1csc(NC(=O)C(C)(C)C)n1)c1csc(-c2ccccc2)n1 [Compound 170]	3.62	–
Cc1ccc(C(=NOCc2csc(NC(=O)C3CC3)n2)n2nnnc2C)s1 [Compound 119]	2.84	–
Cc1nnnn1C(=NOCc1csc(NC(=O)NC2CCCCC2)n1)c1ccsc1 [Compound 25]	2.92	–
Cc1nnnn1C(=NOCc1csc(N)n1)c1ccc(Br)s1 [Compound 86]	2.07	–
Cc1nnnn1C(=NOCc1csc(NC(=O)C2CCCC2)n1)c1ccc(Br)s1 [Compound 90]	3.66	–
Cc1ccc(C(=NOCc2csc(NC(=O)C(C)(C)C)n2)n2nnnc2C)o1 [Compound 59]	2.95	–
Cc1ccc(C(=NOCc2cccc(N)n2)n2nnnc2C)o1 [Compound 72]	1	–
CCCCCC(=O)Nc1nc(CON=C(c2ccc(Br)s2)n2nnnc2C)cs1 [Compound 92]	3.92	–
Cc1nnnn1C(=NOCc1csc(NC(=O)C2CCCCC2)n1)c1ccsc1 [Compound 29]	3.32	–
Cc1nnnn1C(=NOCc1csc(NC(=O)Cc2ccccc2)n1)c1ccsc1 [Compound 32]	2.9	–
CCCCCC(=O)Nc1nc(CON=C(c2ccsc2Cl)n2nnnc2C)cs1 [Compound 13]	3.59	–
Cc1ccc(C(=NOCc2cccc(NC(=O)NCCc3ccccc3)n2)n2nnnc2C)s1 [Compound 128]	3.06	–
CCc1nnnn1C(=NOCc1csc(NC(=O)C(C)C)n1)c1ccsc1 [Compound 43]	3.04	–
Cc1nnnn1C(=NOCc1csc(NC(=O)Nc2ccccc2)n1)c1ccsc1 [Compound 21]	2.88	–
Cc1nnnn1C(=NOCc1cccc(N)n1)c1ccsc1 [Compound 19]	1.28	–
Cc1ccc(C(=NOCc2csc(NC(=O)c3ccccc3)n2)n2nnnc2C)o1 [Compound 63]	2.96	–
COCCOC(=O)Nc1nc(CON=C(c2ccc(Br)s2)n2nnnc2C)cs1 [Compound 99]	3.1	–
Cc1ccc(C(=NOCc2csc(NC(=O)C(C)C)n2)n2nnnc2C)o1 [Compound 66]	2.57	–
Cc1nnnn1C(=NOCc1csc(NC(=O)C2CCCCC2)n1)c1ccsc1Cl [Compound 8]	4.48	–
CCCCCC(=O)Nc1nc(CON=C(c2cc(-c3ccccc3)c(Cl)s2)n2nnnc2C)cs1 [Compound 80]	4.88	–
Cc1nnnn1C(=NOCc1cccc(N)n1)c1ccsc1Cl [Compound 14]	1.39	–
Cc1nnnn1/C(=N/OCc1csc(N)n1)c1ccsc1 [Compound 20, O-(2-Amino-1,3-thiazol-4-yl)methyl-(thien-3-yl)-(5-methyltetrazol-1-yl)methanone oxime]	–	1.32
CCCCCOC(=O)Nc1cccc(CON=C(c2ccc(C)o2)n2nnnc2C)n1 [Compound 74]	4.04	–
Cc1nnnn1C(=NOCc1csc(NC(=O)COCc2ccccc2)n1)c1ccc(Br)s1 [Compound 95]	3.76	–
Cc1nnnn1C(=NOCc1csc(N)n1)c1ccc(Cl)s1 [Compound 100]	2.02	–
Cc1nnnn1C(=NOCc1csc(NC(=O)C2CC2)n1)c1ccc(Cl)s1 [Compound 101]	3	–
Cc1nnnn1C(=NOCc1cccc(NC(=O)C(C)(C)C)n1)c1ccsc1 [Compound 37]	3	–

SMILES	LogP	chromatographic logP
CCCCCOC(=O)Nc1cccc(CON=C(c2ccc(C)s2)n2nnnc2C)n1 [Compound 126]	4.34	–
CCCCCOC(=O)Nc1nc(CON=C(c2csc(-c3ccccc3)n2)c2nnnn2C)cs1 [Compound 167]	4.29	–
Cc1nnnn1/C(=N/OCc1csc(NC(=O)C(C)(C)C)n1)c1ccsc1 [Compound 18, O-(2-tert-Butylcarbonylamino-1,3-thiazol-4-yl)methyl-(thien-3-yl)-(5-methyltetrazol-1-yl)methanone oxime]	–	2.94
Cc1nnnn1C(=NOCc1csc(NC(=O)C2CC2)n1)c1cc(-c2ccccc2)c(Cl)s1 [Compound 77]	4.03	–
Cc1ccc(C(=NOCc2csc(NC(=O)C(C)(C)C)n2)n2nnnc2C)s1 [Compound 115]	3.42	–
Cc1nnnn1C(=NOCc1csc(NC(=O)OCCc2ccccc2)n1)c1ccc(Cl)s1 [Compound 110]	4.24	–
Cc1ccc(C(=NOCc2csc(NC(=O)Cc3ccccc3)n2)n2nnnc2C)o1 [Compound 65]	2.92	–
CCCC(=O)Nc1nc(CON=C(c2ccc(-c3ccc(Cl)c(Cl)c3)o2)n2nnnc2C)cs1 [Compound 82]	4.11	–
C=CCC(=O)Nc1nc(CON=C(c2ccc(C)o2)n2nnnc2C)cs1 [Compound 69]	2.42	–
Cc1ccc(C(=NOCc2csc(NC(=O)OCCc3ccccc3)n2)n2nnnc2C)s1 [Compound 123]	3.88	–
CCCCCOC(=O)Nc1cccc(CON=C(c2csc(-c3ccccc3)n2)c2nnnn2C)n1 [Compound 177]	4.56	–
Cc1nnnn1C(=NOCc1cccc(NC(=O)C(C)(C)C)n1)c1ccsc1Cl [Compound 2]	3.27	–
Cc1nnnn1C(=NOCc1csc(NC(=O)CCCc2ccccc2)n1)c1ccc(Br)s1 [Compound 88]	4.04	–
Cc1nnnn1C(=NOCc1csc(NC(=O)NCc2ccccc2)n1)c1ccc(Cl)s1 [Compound 105]	3.32	–
Cc1nnnn1C(=NOCc1csc(NC(=O)CCc2ccccc2)n1)c1ccsc1Cl [Compound 9]	3.45	–
Cn1nnnc1C(=NOCc1csc(NC(=O)C2CC2)n1)c1csc(-c2ccccc2)n1 [Compound 168]	3.85	–
Cc1nnnn1C(=NOCc1csc(NC(=O)Cc2ccccc2)n1)c1ccc(Cl)s1 [Compound 103]	3.62	–
Cc1nnnn1C(=NOCc1csc(NC(=O)C(C)(C)C)n1)c1ccc(Cl)s1 [Compound 102]	3.73	–
Cc1ccc(C(=NOCc2cccc(NC(=O)OCCc3ccccc3)n2)n2nnnc2C)o1 [Compound 75]	3.78	–
Cc1nnnn1C(=NOCc1csc(NC(=O)C2CCCC2)n1)c1ccsc1Cl [Compound 7]	3.3	–
CCCCCC(=O)Nc1nc(CON=C(c2ccc(-c3ccccc3)o2)n2nnnc2C)cs1 [Compound 133]	3.8	–
CCCC(=O)Nc1nc(CON=C(c2cc(-c3ccccc3)c(Cl)s2)n2nnnc2C)cs1 [Compound 79]	4.18	–
CCCCCC(=O)Nc1cccc(CO/N=C(\c2csc(-c3ccccc3)n2)c2nnnn2C)n1 [Compound 178, O-(2-Pentylcarbonylaminopyridin-6-yl)methyl-(2-phenyl-1,3-thiazol-4-yl)-(1-methyitetrazol-5-yl)methanone oxime]	–	4.06
Cc1ccc(C(=NOCc2csc(NC(=O)C3CCCC3)n2)n2nnnc2C)o1 [Compound 62]	2.98	–
Cc1nnnn1C(=NOCc1csc(NC(=O)C2CCCC2)n1)c1ccsc1 [Compound 39]	3.05	–
CCCCCCCCC(=O)Nc1nc(CON=C(c2ccc(-c3ccc(Cl)c(Cl)c3)o2)n2nnnc2C)cs1 [Compound 83]	5.85	–
